For 31 compounds, IC50, Activity and viability results are on record in ChEMBL document CHEMBL4673279, “Aromatic Ring Substituted Aaptamine Analogues as Potential Cytotoxic Agents against Extranodal Natural Killer/T-Cell Lymphoma” (J Nat Prod, 2020).

The nature of data set [1]: (§1) Cytotoxicity against human SNK6 cells assessed as reduction in cell viability after 48 hrs by CCK8 assay. As to conditions: SNK6, 48 h. It is filed as functional, cell-based.
Another data set has as its system NB-4. Nature of the data set: Cytotoxicity against human NB4 cells assessed as reduction in cell viability after 48 hrs by CCK8 assay. The format is functional, cell-based. As to conditions: NB-4, 48 h. A general note: Tetrazolium assays rely on reduction of a dye to a coloured formazan, in cell work by metabolically active cells.
In another data set the test system is MCF7. The experiment in a line: Cytotoxicity against human MCF7 cells assessed as reduction in cell viability after 48 hrs by CCK8 assay. It is filed as functional, cell-based. Particulars: MCF7, 48 h.
In a further data set the test system is HeLa. Nature of the data set: Cytotoxicity against human HeLa cells assessed as reduction in cell viability after 48 hrs by CCK8 assay. It is filed as functional, cell-based.
A further data set concerns Ramos. Nature of the data set: Cytotoxicity against human Ramos cells assessed as reduction in cell viability after 48 hrs by CCK8 assay. The format is functional, cell-based.
The subject of the next data set is SNK6. The data set is described as §1. The format is functional, cell-based.
For a further data set, the system named is Raji. The experiment in a line: Cytotoxicity against human Raji cells assessed as reduction in cell viability after 48 hrs by CCK8 assay. It is filed as functional, cell-based.
The next data set relates to GES1. Nature of the data set: Cytotoxicity against human GES1 cells assessed as reduction in cell viability after 48 hrs by CCK8 assay. The format is cell-based. Particulars: GES1, 48 h.
A further data set has as its system L02. The experiment in a line: Cytotoxicity against human L02 cells assessed as reduction in cell viability after 48 hrs by CCK8 assay. The format is cell-based. Particulars: L02, 48 h.
The nature of data set [2]: Cytotoxicity against human NK92 cells assessed as cell viability at 20 uM after 48 hrs by CCK8 assay relative to control. It is filed as cell-based. Particulars: read-out: Activity.
The nature of data set [3]: Cytotoxicity against human HEK293T cells assessed as cell viability at 20 uM after 48 hrs by CCK8 assay relative to control. The format is cell-based, HEK-293T. Particulars: read-out: Activity.
The next data set concerns U-937. Nature of the data set: Cytotoxicity against human U937 cells assessed as reduction in cell viability after 48 hrs by CCK8 assay. It is filed as functional, cell-based.
Another data set concerns SNT8. Nature of the data set: Cytotoxicity against human SNT8 cells assessed as reduction in cell viability after 48 hrs by CCK8 assay. The format is functional, cell-based.
For the next data set, the system named is SUD4. The experiment in a line: Cytotoxicity against human SU-DHL-4 cells assessed as reduction in cell viability after 48 hrs by CCK8 assay. The format is functional, cell-based.
Data set [4] can be described thus: (§2) Cytotoxicity against human WSUDLCL2 cells assessed as reduction in cell viability after 48 hrs by CCK8 assay. It is filed as functional, cell-based. As to conditions: WSUDLCL2, 48 h.
Another data set concerns WSUDLCL2. The description is as §2. It is filed as functional, cell-based.

The IC50 is the concentration at which inhibition is half-maximal. Turning to `COc1cc2ccnc3c2c(c1OC)NC=C3c1cccc(O)c1`, the IC50 (in [1]; in the data set with NB-4; in the data set on MCF7; in the data set with HeLa) was more than 20 µM in each case.
Regarding `COc1c(OC)c2c3c(nccc3c1-c1cc(C)cc(C)c1)C(c1cc(C)cc(C)c1)=CN2`, the IC50 was 3.1 µM in [1], 7.9 µM with NB-4, 8.3 µM with MCF7 and 5.4 µM in the data set on HeLa.
Consider `COc1cc2ccnc3c2c(c1OC)NC=C3c1cccc2ccccc12`, for which the IC50 was more than 20 µM in data set [1], more than 20 µM in the data set on NB-4, more than 20 µM in the data set on MCF7 and 4 µM with HeLa.
As for `COc1cc2ccnc3c2c(c1OC)NC=C3c1cccc(C)c1`, the IC50 is more than 20 µM in [1], more than 20 µM with NB-4, more than 20 µM in the data set with MCF7 and 12 µM in the data set on HeLa.
Regarding `COc1cc2ccnc3c2c(c1OC)NC=C3` [AAPTAMINE], the IC50 in [1] is more than 20 µM; with NB-4, more than 20 µM; with MCF7 it was more than 20 µM; in the data set on HeLa, 19 µM.
Regarding `CCc1ccc(C2=CNc3c(OC)c(OC)cc4ccnc2c34)cc1`, the IC50 in [1] was 4.9 µM; in the data set on NB-4, more than 20 µM; with MCF7 it was more than 20 µM; in the data set with HeLa, 11 µM.
Consider `COc1cc2ccnc3c2c(c1OC)NC=C3c1cccc(F)c1`, for which the IC50 (in data set [1]; in the data set with NB-4; with MCF7; in the data set on HeLa) was more than 20 µM each time.
For the compound `COc1c(OC)c2c3c(nccc3c1-c1ccccc1)C=CN2`, the IC50 (in [1]; in the data set with NB-4; in the data set on MCF7; in the data set with HeLa) was more than 20 µM each time.
As for `COc1ccc(C2=CNc3c(OC)c(OC)c(-c4ccc(OC)cc4)c4ccnc2c34)cc1`, the IC50 in [1] is 5.8 µM; in the data set on NB-4, more than 20 µM; with MCF7, 12 µM; in the data set with HeLa it was 13 µM.
For `COc1cc2ccnc3c2c(c1OC)NC=C3c1ccccc1` the same measures were 8.9 µM, more than 20 µM, 12 µM and 17 µM.
Consider `COc1c(OC)c2c3c(nccc3c1-c1cccc(C(C)C)c1)C(c1cccc(C(C)C)c1)=CN2`, for which the IC50 (in data set [1]; in the data set on NB-4; in the data set on MCF7; with HeLa) was more than 20 µM throughout.
In the case of `COc1c(OC)c2c3c(nccc3c1-c1ccccc1)C(c1ccccc1)=CN2`, the IC50 is more than 20 µM in [1], more than 20 µM in the data set with NB-4, 19 µM with MCF7 and 11 µM with HeLa.
On to `COc1c(OC)c2c3c(nccc3c1-c1ccc(C)cc1)C(c1ccc(C)cc1)=CN2`, for which the IC50 is 11 µM in data set [1], 18 µM with NB-4, more than 20 µM in the data set on MCF7 and 12 µM in the data set on HeLa.
In the case of `COc1c(OC)c2c3c(nccc3c1-c1cccc(C(C)C)c1)C=CN2`, the IC50 (in [1]; in the data set with NB-4; in the data set with MCF7; in the data set with HeLa) was more than 20 µM throughout.
On to `COc1c(OC)c2c3c(nccc3c1-c1cccc(C(F)(F)F)c1)C=CN2`, for which the 50% inhibitory concentration (IC50) is 4.3 µM in data set [1], more than 20 µM with NB-4, 3.2 µM in the data set with MCF7 and 8.9 µM with HeLa.
Take `COc1ccc(C2=CNc3c(OC)c(OC)cc4ccnc2c34)cc1`: the IC50 (in [1]; in the data set on NB-4; with MCF7; in the data set with HeLa) was more than 20 µM in each case.
For the compound `COc1c(OC)c2c3c(nccc3c1-c1ccc(C(F)(F)F)cc1)C=CN2`, the IC50 was more than 20 µM in data set [1], more than 20 µM in the data set with NB-4, 11 µM in the data set with MCF7 and 11 µM in the data set on HeLa.
For `COc1c(OC)c2c3c(nccc3c1-c1ccc(C(F)(F)F)cc1)C(c1ccc(C(F)(F)F)cc1)=CN2`, the IC50 is 9.4 µM in [1], more than 20 µM with NB-4, more than 20 µM in the data set on MCF7 and more than 20 µM in the data set on HeLa.
Regarding `COc1c(OC)c2c3c(nccc3c1-c1cccc(C)c1)C(c1cccc(C)c1)=CN2`, the Activity result in the data set with Ramos, with SNK6, in the data set with Raji, with U-937, in the data set on SNT8 and with SUD4 was “Dose-dependent effect” in each case. For the same compound, the Activity result with WSUDLCL2 was “Dose-dependent effect”. The IC50 with Ramos was determined as 1.4 µM; in data set [1] it was 0.6 µM; in the data set with NB-4, 2.1 µM; in the data set with MCF7 it was 10 µM; in the data set with HeLa, 7.2 µM; in the data set with Raji, 1.4 µM. Further, the IC50 was found to be 2 µM in the data set on GES1; 3.4 µM in the data set with L02; 2.8 µM with U-937 (U-937, 48 h); 0.8 µM in the data set with SUD4 (SU-DHL-4, 48 h); 1.3 µM in [4]. The viability at 48 h, 20 µM in data set [2] and in data set [3] was not above 90% each time.
As for `CCc1ccc(C2=CNc3c(OC)c(OC)c(-c4ccc(CC)cc4)c4ccnc2c34)cc1`, the IC50 in data set [1] is 4.2 µM; in the data set on NB-4, 16 µM; with MCF7, 18 µM; in the data set on HeLa it was 17 µM.
In the same order, the values of `COc1c(OC)c2c3c(nccc3c1-c1cccc(C(F)(F)F)c1)C(c1cccc(C(F)(F)F)c1)=CN2` are 8.6 µM, 7.1 µM, more than 20 µM and 18 µM.
In the same order, the values of `COc1c(OC)c2c3c(nccc3c1-c1cccc3ccccc13)C=CN2` are 16 µM, more than 20 µM, more than 20 µM and 18 µM.
With `COc1c(OC)c2c3c(nccc3c1-c1ccc(Cl)cc1)C(c1ccc(Cl)cc1)=CN2`, the IC50 was 8.4 µM in data set [1], 17 µM with NB-4, more than 20 µM in the data set with MCF7 and 11 µM in the data set on HeLa.
As for `COc1c(OC)c2c3c(nccc3c1-c1ccc(Cl)cc1)C=CN2`, the IC50 is 7.7 µM in data set [1], more than 20 µM in the data set with NB-4, 9.4 µM in the data set on MCF7 and 1.9 µM with HeLa.
`COc1c(OC)c2c3c(nccc3c1-c1cccc(F)c1)C(c1cccc(F)c1)=CN2`: the IC50 in data set [1] was 10 µM; in the data set on NB-4 it was more than 20 µM; in the data set with MCF7 it was 20 µM; in the data set on HeLa, 17 µM.
In the same order, the values of `COc1cc2ccnc3c2c(c1OC)NC=C3c1cccc(C(F)(F)F)c1` are 8.8 µM, more than 20 µM, 17 µM and 15 µM.
In the same order, the values of `COc1c(OC)c2c3c(nccc3c1-c1cccc3ccccc13)C(c1cccc3ccccc13)=CN2` are more than 20 µM, more than 20 µM, more than 20 µM and 8.2 µM.
Consider `COc1cc2ccnc3c2c(c1OC)NC=C3c1ccc(Cl)cc1`, for which the IC50 (in data set [1]; in the data set with NB-4; in the data set with MCF7; with HeLa) was more than 20 µM in each case.
For the compound `COc1c(OC)c2c3c(nccc3c1-c1ccc(F)cc1)C(c1ccc(F)cc1)=CN2`, the IC50 in data set [1] was more than 20 µM; in the data set with NB-4 it was 19 µM; in the data set on MCF7, more than 20 µM; with HeLa, 8.7 µM.
Turning to `COc1ccc(-c2c(OC)c(OC)c3c4c(nccc24)C=CN3)cc1`, the IC50 in [1] was 1.7 µM; with NB-4, more than 20 µM; in the data set with MCF7, 9.8 µM; with HeLa it was 11 µM.
In the same order, the values of `COc1cc2ccnc3c2c(c1OC)NC=C3c1cccc(C(C)C)c1` are 8.4 µM, 17 µM, more than 20 µM and 11 µM.
